Data on seven molecules can be found in PubChem BioAssay (NCI).

Test systems include COLO 205 colon; HCC-2998 colon; HCT-15 colon; MOLT-4 leukemia; NCI-H23 lung; OVCAR-5 ovarian; PC-3 prostate; SK-MEL-5 melanoma; SNB-75 CNS; T-47D breast.
Common to all, as to assay: NCI tumour cell line growth inhibition, 48 h

Structures are written as SMILES. Where “and” joins values, the source holds several entries; their conditions need not be identical. Equal values may be shown once.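 Grown in 96-well plates, cells were treated for 48 hours with each compound at five concentrations. Insufficient inhibition: endpoint recorded as highest concentration tested. GI50 is the concentration that inhibits growth by half. At the TGI there is no net growth.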

On to `COc1ccc(C2CC(=O)Nc3c2c(C)nn3-c2nc3ccccc3[nH]2)cc1` (stereo not given), for which the GI50 with COLO 205 colon is 3.59 µM; in the test with HCC-2998 colon, 5.67 µM; with HCT-15 colon, 3.49 µM; in the test with MOLT-4 leukemia, 0.0589 µM; in the test on NCI-H23 lung, 2.57 µM; in the test with OVCAR-5 ovarian, 4.52 µM. Moreover, the GI50 in the test with PC-3 prostate was 3.21 µM; in the test with SK-MEL-5 melanoma, 1.82 µM; in the test with SNB-75 CNS, 2.36 µM; in the test on T-47D breast, 3.92 µM. The TGI in the test on COLO 205 colon is 14.7 µM; with HCC-2998 colon it was > 58.5 µM; with HCT-15 colon, > 100 µM; in the test with MOLT-4 leukemia, 0.326 µM; in the test on NCI-H23 lung, 6.83 µM; in the test on OVCAR-5 ovarian, > 70.1 µM. Further, the TGI with PC-3 prostate was 48.9 µM; in the test with SK-MEL-5 melanoma, 3.71 µM; in the test on SNB-75 CNS it was 9.12 µM; in the test with T-47D breast it was > 41.9 µM.

For the molecule `CC[C@@]1(O)C(=O)NCc2c1cc1n(c2=O)Cc2cc3cc4c(cc3nc2-1)OCO4`, the GI50 in the test on COLO 205 colon was 22.7 µM; in the test with HCC-2998 colon, 0.984 µM; in the test with HCT-15 colon, 8.58 µM; in the test on MOLT-4 leukemia, 0.118 µM; with NCI-H23 lung it was 0.798 µM; with OVCAR-5 ovarian, 9.39 µM. Also, the GI50 is 2.38 µM in the test with PC-3 prostate, 1.23 µM with SK-MEL-5 melanoma, 0.5 µM in the test with SNB-75 CNS and 0.842 µM in the test on T-47D breast. The TGI with COLO 205 colon was > 100 µM; in the test with HCC-2998 colon, > 89.1 µM; in the test on HCT-15 colon it was > 100 µM; with MOLT-4 leukemia, 0.414 µM; in the test on NCI-H23 lung, > 13.2 µM; in the test with OVCAR-5 ovarian it was > 88.2 µM. In addition, the TGI with PC-3 prostate is > 100 µM; in the test on SK-MEL-5 melanoma, 27.8 µM; in the test on SNB-75 CNS it was 3.57 µM; in the test on T-47D breast, > 27.1 µM.

As to `[N-]=[N+]=Nc1ncc(-c2ccc(C(F)(F)F)cc2)c(NC2CCCCCC2)n1`, the GI50 with COLO 205 colon, in the test on HCC-2998 colon, in the test with HCT-15 colon, with MOLT-4 leukemia, in the test with NCI-H23 lung and in the test on OVCAR-5 ovarian was > 10 µM in each case. For the same molecule, the GI50 in the test with PC-3 prostate, with SK-MEL-5 melanoma, with SNB-75 CNS and in the test with T-47D breast was > 10 µM throughout. The TGI in the test with COLO 205 colon, in the test with HCC-2998 colon, in the test with HCT-15 colon, with MOLT-4 leukemia, in the test on NCI-H23 lung and in the test with OVCAR-5 ovarian was > 10 µM throughout. Besides, the TGI with PC-3 prostate, in the test on SK-MEL-5 melanoma, with SNB-75 CNS and in the test with T-47D breast was > 10 µM each time.

For `COC(=O)Nc1ccc2ccc3c(NC(=O)OC)ccc4ccc1c2c43` (tested in a mixture with another compound), the GI50 was 6.08 µM in the test with COLO 205 colon; 9.99 µM with HCC-2998 colon; 2.63 µM with HCT-15 colon; 7.07 µM in the test with MOLT-4 leukemia; 11.5 µM in the test with NCI-H23 lung; 13.9 µM in the test on OVCAR-5 ovarian. Also, the GI50 in the test with PC-3 prostate was 6.89 µM; in the test on SK-MEL-5 melanoma, 4.42 µM; in the test on SNB-75 CNS it was 12.6 µM; in the test on T-47D breast it was 9.23 µM. Further, the TGI is 30.5 µM in the test with COLO 205 colon; 37.9 µM in the test with HCC-2998 colon; > 50 µM in the test on HCT-15 colon; 33.7 µM in the test on MOLT-4 leukemia; > 50 µM with NCI-H23 lung; > 50 µM with OVCAR-5 ovarian. Besides, the TGI with PC-3 prostate was 26 µM; in the test with SK-MEL-5 melanoma it was > 50 µM; in the test on SNB-75 CNS it was > 50 µM; in the test with T-47D breast it was 35.6 µM.

For `N#C/C(=C\c1cn(-c2ccccc2)c2ccccc12)C(=O)O`, the GI50 in the test on COLO 205 colon was 85.9 µM; with HCC-2998 colon, 49.5 µM; in the test with HCT-15 colon, 30.7 µM; with MOLT-4 leukemia it was 72.8 µM; with NCI-H23 lung, 35.7 µM; in the test with OVCAR-5 ovarian, 95.5 µM. Also, the GI50 with PC-3 prostate was 58.3 µM; in the test with SK-MEL-5 melanoma, 38.4 µM; with SNB-75 CNS it was 31.4 µM; in the test on T-47D breast, 29.6 µM. Also, the TGI in the test with COLO 205 colon, in the test with HCC-2998 colon, in the test with HCT-15 colon, with MOLT-4 leukemia, in the test with NCI-H23 lung and with OVCAR-5 ovarian was > 100 µM in each case. Moreover, the TGI with PC-3 prostate, with SK-MEL-5 melanoma, in the test on SNB-75 CNS and in the test on T-47D breast was > 100 µM in each case.

Turning to `COc1ccc(NC2=C(Sc3nc(C)cc(C)n3)C(=O)N(Cc3ccccc3)C2=O)cc1Cl`, the GI50 in the test with COLO 205 colon was > 160 µM; in the test on HCC-2998 colon, > 160 µM; in the test with HCT-15 colon, > 160 µM; in the test on MOLT-4 leukemia it was 14.4 µM; in the test with NCI-H23 lung, > 160 µM; with OVCAR-5 ovarian it was > 160 µM. The GI50 was 32.9 µM in the test on PC-3 prostate, 33.9 µM in the test on SK-MEL-5 melanoma, 40.8 µM in the test with SNB-75 CNS and 25.1 µM in the test with T-47D breast. Moreover, the TGI in the test with COLO 205 colon, in the test on HCC-2998 colon, in the test with HCT-15 colon, in the test with MOLT-4 leukemia, in the test on NCI-H23 lung and in the test on OVCAR-5 ovarian was > 160 µM in each case. In addition, the TGI with PC-3 prostate, with SK-MEL-5 melanoma, with SNB-75 CNS and in the test on T-47D breast was > 160 µM in each case.

`COc1cc(N2CCC(N(C)C)CC2)ccc1Nc1ncc(Cl)c(Nc2ccccc2P(C)(C)=O)n1`: the GI50 with COLO 205 colon is 0.252 µM and 0.0658 µM; with HCC-2998 colon, 3.6 µM and 0.446 µM; in the test on HCT-15 colon, 2.8 µM and 1.48 µM; in the test on MOLT-4 leukemia it was 4.05 µM and 1.16 µM; in the test with NCI-H23 lung, 1.33 µM and 0.338 µM; with OVCAR-5 ovarian, 0.351 µM and 0.198 µM. For the same molecule, the GI50 was 3.73 µM and 0.506 µM in the test with PC-3 prostate; 4.34 µM and 2.72 µM in the test with SK-MEL-5 melanoma; 1.07 µM and 0.228 µM with SNB-75 CNS; 7.03 µM and 1.43 µM in the test with T-47D breast. For the same molecule, the TGI with COLO 205 colon was 1.12 µM and 0.33 µM; in the test with HCC-2998 colon it was > 52.2 µM; in the test with HCT-15 colon, 16.9 µM and > 9.67 µM; in the test with MOLT-4 leukemia, > 100 µM; in the test on NCI-H23 lung, 17.1 µM and > 4.62 µM; in the test with OVCAR-5 ovarian, 8.97 µM and > 10 µM. The TGI with PC-3 prostate was > 96.6 µM; in the test with SK-MEL-5 melanoma it was 17 µM and > 6.71 µM; in the test on SNB-75 CNS it was 2.69 µM and 0.82 µM; in the test on T-47D breast it was 38.5 µM and > 10 µM.
